Values after ≈ are worked out from the molar mass of the structure shown.
Assays:
PBMCs = test: MTT cytotoxicity assay in PBMCs; type: cell-based, human
Protocol: PBMCs were isolated from blood samples using the Ficoll-Hypaque technique. Initially, 10–20 mL of blood was collected in a heparin tube at a ratio of 1:500 from a minimum of three healthy volunteers. Subsequently, the blood samples were diluted with Phosphate buffer saline (PBS), pH 7.4, at a ratio of 1:1 to reduce viscosity. Histopaque-1077 (Sigma-Aldrich, MA, USA) was then underlaid the diluted sample and centrifuged at 400×g for 30 min. The resulting PBMCs were collected, washed with PBS, pH 7.4, and prepared for further experiments.
(§1) MTT (3-(4,5-dimethylthiazol-2-yl)-2,5-diphenyltetrazolium bromide) assay was used to investigate the cytotoxicity of the test samples. KG-1a (1.5 × 10^4 cells/well), K562 (1.0 × 10^4 cells/well), PBMCs (1.0 × 10^5 cells/well), A549 (5.0 × 10^3 cells/well), MCF-7 (5.0 × 10^3 cells/well), and HeLa (5.0 × 10^3 cells/well) were seeded into a 96-well plate and incubated overnight at 37 °C with 5% CO2. […] After that, 5 mg/mL of MTT dye solution (Sigma-Aldrich, MA, USA) was added and incubated for 4 h. The produced formazan crystals were dissolved in 200 µL of DMSO (Sigma-Aldrich, MA, USA); then, the optical density (OD) was measured using an ELISA plate reader (Metertech, Taipei, Taiwan) at 578 nm with a reference wavelength of 630 nm. The percentage of surviving cells was calculated from the absorbance values of the test and control wells using the following Equation. 1 [drawing 1]
(§2) where ODsample is a mean absorbance in test well and ODvehicle control is a mean absorbance in VC well. The average percentage of surviving cells at each concentration obtained from triplicate experiments was plotted as a dose-response curve. Inhibitory concentration values at 50% growth (IC50 value) were defined as the lowest concentration of the test sample that inhibited cell growth by 50% compared to the untreated control.
(§3) To calculate IC50 values, a dose-response curve was fitted using non-linear regression analysis, as described in the GraphPad Prism guidelines (https://www.graphpad.com/support/faq/how-to-determine-an-icsub50sub/). The IC50 value was obtained by determining the point at which the curve intersected 50% growth inhibition. Non-linear regression graphs of the dose-response curve for each compound are provided in the supplementary data file (Figs. S1–S8).

[1] = test system: CD34 protein expression in KG-1a cells; test: CD34 protein expression in KG-1a cells by Western blotting; type: cell-based, human; details: IC20 concentrations, 48 h, normalized to GAPDH
Protocol: (§4) KG-1a cells (1.5 × 10^5 cells/mL) were treated with compounds or extracts at different incubation times. Then, the cells were harvested and the whole proteins were extracted using a RIPA buffer (25 mM Tris-base, pH 7.6, 0.1% SDS, 1% Triton X-100, 150 mM NaCl, and 1 mM EDTA). The protein concentration was measured using the Folin-Lowry or Bradford assay. The whole protein lysates (30 µg/lane) were then separated through 7.5% SDS-PAGE under reducing conditions and then transferred to PVDF membranes. The membranes were blocked in 5% skim milk in PBS, pH 7.4 at RT for 2 h, then, target proteins were probed with specific primary antibodies (anti-WT1, anti-CD34, anti-GAPDH, anti-cleaved caspase-3, anti-cleaved PARP, anti-phospho-Akt, anti-phospho-c-Jun, anti-phospho-SAPK/JNK, and anti-YAP/TAZ) indicated in Table S10 which diluted at a ratio of 1:1,000 in PBS, pH 7.4 at RT for 2 h. After incubation, the membranes were rinsed 6 times with 0.1% Tween-20 (Sigma-Aldrich, MA, USA) in PBS, pH 7.4 (PBS-T), each time for 5 min. The reaction was followed by HRP-conjugated secondary antibody at 1:20,000 dilution in PBS, pH 7.4 at RT for 2 h, then, the membranes were rinsed 6 times for 5 min each with PBS-T. The proteins were shown using Immobilon Forte Western HRP substrate (Millipore, MA, USA). Finally, the protein band signal was quantified by using a scan densitometer (Bio-Rad Laboratories, CA, USA).

KG-1a cells [2] = test: Trypan blue exclusion test, cell numbers of KG-1a cells; type: cell-based, human; details: IC20 concentrations, 48 h
Protocol: (§5) This test was used to confirm the cytotoxicity of the test samples. The cancer cells after exposure to crude ethanolic extracts and active compounds for 48 h were harvested and washed with ice-cold PBS, pH 7.4 for 3 times. Then, the cells were resuspended with PBS, pH 7.4. The cell suspensions were diluted with PBS, pH 7.4 at the appropriate dilution before being mixed with 0.2% trypan blue solution at 1:2 dilution for cell count on a hemocytometer. From this test, the viable cells and the dead cells could also be obviously detected.
as §5, with “crude ethanolic extracts and active compounds. KG-1a” for “the test samples. The cancer”

RAW264.7 cells = test: Cytotoxicity (IC20, cell viability) in RAW264.7 cells; type: cell-based; details: incubation for 48 h
Protocol: MTT (3-(4,5-dimethylthiazol-2-yl)-2,5-diphenyltetrazolium bromide) assay was used to investigate the cytotoxicity of the test samples. […] After that, 5 mg/mL of MTT dye solution (Sigma-Aldrich, MA, USA) was added and incubated for 4 h. The produced formazan crystals were dissolved in 200 μL of DMSO (Sigma-Aldrich, MA, USA); then, the optical density (OD) was measured using an ELISA plate reader ([…], Taiwan) at 578 nm with a reference wavelength of 630 nm. The percentage of surviving cells was calculated from the absorbance values of the test and control wells using the following Equation. 1 [drawing 1] […] Afterward, supernatants were collected, and the levels of TNF-α and NO were measured using the Mouse TNF alpha Uncoated ELISA Kit (InvitrogenTM, ThermoFisher Scientific, MA, USA) and the Total Nitric Oxide Assay Kit (InvitrogenTM, ThermoFisher Scientific, MA, USA), respectively, according to the manufacturer's instructions.

[3] = test system: NO production in LPS-activated RAW264.7 cells; test: NO production in LPS-activated RAW264.7 cells; type: cell-based, mouse; details: IC20 concentration, LPS-activated, 24 h
Protocol: For the measurement of tumor necrosis factor-alpha (TNF-α) and NO, RAW264.7 cells were pre-treated with plant extracts and active compounds at a non-cytotoxic dose (IC20) (Table S9) or 1 µg/mL of dexamethasone (positive control) in a 24-well plate for 2 h. Subsequently, 1 µg/mL of lipopolysaccharide (LPS) (Cat No. 00497693, Invitrogen™, MA, USA) was added to each well, and the cells were incubated for an additional 24 h to allow sufficient time for the compounds to exert measurable anti-inflammatory effects while maintaining cell viability. Afterward, supernatants were collected, and the levels of TNF-α and NO were measured using the Mouse TNF alpha Uncoated ELISA Kit (Invitrogen™, ThermoFisher Scientific, MA, USA) and the Total Nitric Oxide Assay Kit (Invitrogen™, ThermoFisher Scientific, MA, USA), respectively, according to the manufacturer’s instructions.
The percentage of NO or cytokine inhibitions were calculated using the following equation: […]
where A is the level of cytokine or NO without treatment, and B is the level of cytokine or NO with treatment.

[4] = test system: WT1 protein expression in KG-1a cells; test: WT1 protein expression in KG-1a cells by Western blotting; type: cell-based, human
Protocol: as §4

KG-1a cells [5] = test: MTT cytotoxicity assay in KG-1a cells; type: cell-based, human; details: for Selectivity index (SI): IC50 for normal cells (PBMCs) / IC50 for cancer cells (KG-1a)
Protocol: as §1, §2, §3
where IC50 N is IC50 for normal cells and IC50 C is IC50 for cancer cells which were treated with the same compounds in both cells.

KG-1a cells [6] = test: Cell death analysis by PI staining and flow cytometry in KG-1a cells; type: cell-based, human; details: nocodazole 5–120 ng/mL, shogaol 6–9 µg/mL, curcumin various concentrations; time course
Protocol: Additionally, PI staining was used to investigate the cytotoxicity of the active compounds. KG-1a cells after exposure to the active compounds with various concentration were harvested at different incubation times and washed with ice-cold PBS, pH 7.4 for 2 times. Then, the cells were resuspended with PI in PBS, pH 7.4 at a ratio of 1:10,000. The percentage of dead cells was detected by flow cytometry (CytoFLEX S, Beckman Coulter, CA, USA) and analyzed by CytExpert program (Beckman Coulter, CA, USA).

[7] = test system: cleaved caspase-3 and PARP in KG-1a cells; test: Cleaved caspase-3 and cleaved PARP in KG-1a cells by Western blotting; type: cell-based, human; details: IC50 concentrations (curcumin 10 µg/mL, shogaol 3 µg/mL, nocodazole 10 ng/mL), 0–12 h
Protocol: as §4

KG-1a cells [8] = test: Cell cycle and apoptosis (sub-G1) assay by flow cytometry in KG-1a cells; type: cell-based, human; details: 48 h
Protocol: After treating KG-1a cells with active compounds at various concentrations for 48 h, the cells were pulsed with 10 µM BrdU (Sigma-Aldrich, MA, USA) for 20 min at 37 °C in an incubator with 5% CO2. Subsequently, the cells were harvested, washed with ice-cold PBS, pH 7.4 three times, and then fixed with 70% ethanol in PBS, pH 7.4 at −30 °C. Following fixation, the cells were washed and resuspended in 2 N HCl/0.5% Triton X-100 for 30 min at room temperature (RT). Then, 0.1 M sodium tetraborate decahydrate was added for 2 min at RT to neutralize the acid. Subsequently, the cells were stained with FITC-anti-BrdU antibody for 30 min at RT. After washing, the cells were resuspended in propidium iodide (PI) (Dojindo, Kumamoto, Japan) in PBS, pH 7.4 at a ratio of 1:1,000. The cell cycle phases were detected using a flow cytometer (CytoFLEX S, Beckman Coulter, CA, USA) and analyzed with the CytExpert program (Beckman Coulter, CA, USA).
The flow cytometry data were analyzed to assess both apoptosis and cell cycle distribution. Apoptosis was evaluated by determining the percentage of cells in the sub-G1 phase using the Nicoletti assay. For cell cycle analysis, populations in the G1, S, and G2/M phases were calculated after excluding the sub-G1 population to avoid interference from apoptotic cells, allowing for a clearer assessment of cell cycle arrest in different phases. Data were presented in separate graphs for the sub-G1 population and cell cycle phase distributions.

[9] = active compounds and drugs, MTT, 48 h

CCCCC[C@H](O)CC(=O)CCc1ccc(O)c(OC)c1 [Gingerol, gingerol]
IC50 value R1 (PBMCs; Table S8, PBMCs, first replicate): > 100 µg/mL | IC50 value Mean (PBMCs; Table S8, PBMCs, mean of R1-R3): > 100 µg/mL | IC50 value R3 (PBMCs; Table S8, PBMCs, third replicate): > 100 µg/mL | IC50 PBMCs (PBMCs; [9]): > 100 µg/mL | IC20 PBMCs (inhibitory concentration at 20% growth) (PBMCs; incubation for 48 h): 76.94 ± 4.13 µg/mL (≈ 261 µM) | decrease of CD34 protein level compared to VC [1]: 31.95 ± 5.70% | decrease of total cell number compared to VC (KG-1a cells [2]): 31.39 ± 8.69% | normalized viable cell counts (KG-1a cells [2]): 979.50 ± 8.90 × 10^3 cells per 1 million total cells | IC20 RAW264.7 (inhibitory concentration at 20% growth) (RAW264.7 cells): 16.73 ± 4.64 µg/mL (≈ 56.8 µM) | effect on NO production compared to dexamethasone (positive control) [3]: had no effect | decrease of WT1 protein level compared to VC ([4]; IC20 concentrations, 48 h, normalized to GAPDH): 43.98 ± 8.93% | Selectivity index (SI) (KG-1a cells [5]; 48 h): > 1.30 | Selectivity index (SI) (KG-1a cells [5]; 48 h, listed as gingerol): greater than 1 | IC50 value R1 (KG-1a cells [5]; Table S7, KG-1a, first replicate): 77.86 µg/mL (≈ 264 µM) | IC50 value R3 (KG-1a cells [5]; Table S7, KG-1a, third replicate): 77.08 µg/mL (≈ 262 µM) | IC50 KG-1a (KG-1a cells [5]; [9]): 76.77 ± 1.28 µg/mL (≈ 261 µM) | IC20 KG-1a (inhibitory concentration at 20% growth) (KG-1a cells [5]; incubation for 48 h): 14.09 ± 3.87 µg/mL (≈ 47.9 µM)

COC(=O)Nc1nc2ccc(C(=O)c3cccs3)cc2[nH]1 [Nocodazole, nocodazole, reference compound]
induction of cell death (PI staining) (KG-1a cells [6]): significant induction of cell death after 24 h of incubation | time to activation of cleaved caspase-3 and PARP [7]: failed to induce the activation of cleaved caspase-3 and PARP even after 12 h of incubation | effect on WT1 expression ([4]; IC50 concentration, up to 12 h): failed to reduce WT1 expression even after 12 h of incubation | effect on sub-G1 population compared to VC (KG-1a cells [8]; IC20 concentration (nocodazole 6 ng/mL, curcumin 3 µg/mL, shogaol 0.12 µg/mL)): significantly increased the sub-G1 population | increase of proportion of cells in G2/M phase (KG-1a cells [8]; IC20 concentration, sub-G1 excluded): 23.48 ± 1.35% | IC50 (KG-1a cells [5]; Homo sapiens, KG-1a, as used for Western blotting, read-out: IC50 concentration in KG-1a cells): 0.01 µg/mL (≈ 0.0332 µM) | IC20 (KG-1a cells [5]; Homo sapiens, KG-1a, as used in the cell cycle assay, read-out: IC20 concentration in KG-1a cells): 0.006 µg/mL (≈ 0.0199 µM)

Reference: article PMC11869560, “Anticancer and cancer preventive activities of shogaol and curcumin from Zingiberaceae family plants in KG-1a leukemic stem cells” (BMC Complementary Medicine and Therapies, 2025)
